Test results: patent US20160175318A1, “COMPOSITIONS COMPRISING ANTIBACTERIAL AGENT AND TAZOBACTAM” (WOCKHARDT LIMITED, priority 2013, published 2016)
Where two headings read alike, the source gives them in different places.

Legend:
Type in all cases: cell-based
E. coli B-89 [1] = experiment: Quantitative drug diffusion assay (disc, zone of inhibition, CLSI); set-up: key to Interpretation of zone as per CLSI recommendations: R: Resistant; I: Intermediate; S: Sensitive (Interpretation as per CLSI recommendations, 2010)
Excerpt: (§1) Activity of cefepime in combination with tazobactam and various penicillins in combination with respective ESBL inhibitors was also investigated against highly resistant ESBL strains in quantitative drug diffusion assay performed as per CLSI recommendations (Clinical and Laboratory Standards Institute (CLSI), performance Standards for Antimicrobial Susceptibility Testing, 20th Informational Supplement, M 100-S20, Volume 30, No. 1, 2010).
(§2) In a typical study, overnight grown bacterial cultures after appropriate dilution were seed inoculated in the molten, cooled agar media and plates poured. Antibiotics containing 6 mm diameter discs were place on the top of the agar surface. Zone of inhibition based observation was performed after 16-18 h of incubation at 35±2° C. in ambient air. The overall procedure was performed as per CLSI recommendations (Table 5 and 6). These assays are routinely used in determining possibility of treating a particular infection using antibiotic and/or their combinations. For example, in case of treating an infection caused by E. coli (M138) using Augmentin® [commercially available combination: Amoxicillin (500 mg)+Clavulanic acid (125 mg)], the zone inhibition values need to be in the sensitive (S) range.

E. coli B-123 = experiment: as above; set-up: key to Interpretation of zone as per CLSI recommendations: R: Resistant; I: Intermediate; S: Sensitive (Interpretation as per CLSI recommendations, 2010)
Excerpt: as §1, §2

E. coli S-112 = experiment: as above; set-up: key to Interpretation of zone as per CLSI recommendations: R: Resistant; I: Intermediate; S: Sensitive (Interpretation as per CLSI recommendations, 2010)
Excerpt: as §1, §2

E. coli M-138 = experiment: as above; set-up: key to Interpretation of zone as per CLSI recommendations: R: Resistant; I: Intermediate; S: Sensitive (Interpretation as per CLSI recommendations, 2010)
Excerpt: as §1, §2

E. coli M50 [2] = experiment: as above; set-up: key to Interpretation of zone as per CLSI recommendations: R: Resistant; I: Intermediate; S: Sensitive (Interpretation as per CLSI recommendations, 2010)
Excerpt: as §1, §2

E. coli 7MP [3] = experiment: as above; set-up: key to Interpretation of zone as per CLSI recommendations: R: Resistant; I: Intermediate; S: Sensitive (Interpretation as per CLSI recommendations, 2010)
Excerpt: as §1, §2

E. coli B-89 [4] = experiment: MIC by agar dilution (CLSI) against highly resistant ESBL strain; conditions: E. coli B-89
Experimental: (§3) The results on activity of cefepime and other cephalosporin antibacterial agents in combination with tazobactam against highly resistant ESBL strains are given Table 1. In a typical study, overnight grown bacterial cultures were diluted appropriately and inoculated on the agar media containing doubling dilutions of the antibiotic. Observation for growth or no growth was performed after 16-20 h of incubation at 35±2° C. in ambient air. The overall procedure was performed as per Clinical and Laboratory Standards Institute (CLSI) recommendations. This experimental was followed for Examples 2-4 and 6 below (Table 2-4 and 7).

E. coli B123 = experiment: as above; conditions: for Activity (MIC, method of Example 1), Table 7: E. coli B-123; for MIC: Escherichia coli, B123, E. coli B123, read-out: MIC
Experimental: as §3

E. cloacae M-20 = experiment: as above; conditions: E. cloacae M-20
Experimental: as §3

K. pneumoniae M150 = experiment: as above
Experimental: as §3

E. coli M50 [5] = experiment: as above
Experimental: as §3

E. coli 7MP [6] = experiment: as above; conditions: E. coli 7MP
Experimental: as §3

[7] = ESBL inhibitor 0 mcg (antibiotic alone)
[8] = Table 5, with Tazobactam 10 mcg

`CO/N=C(\C(=O)N[C@@H]1C(=O)N2C(C(=O)[O-])=C(C[N+]3(C)CCCC3)CS[C@H]12)c1csc(N)n1` [Cefepime] was tested, and the “Zone of Inhibition” value (E. coli B-89 [1]; [7]) was 8 mm, the “Interpretation of zone as per CLSI recommendations” value (E. coli B-89 [1]; Table 5, ESBL inhibitor 0 mcg) was “(R)” and the “Interpretation of zone as per CLSI recommendations” value (E. coli B-89 [1]; [8]) was “(S)”. For the same compound, the “Zone of Inhibition” value (E. coli B-89 [1]; with Tazobactam 10 mcg) was 20 mm, the “Zone of Inhibition” value (E. coli B-123; [7]) was 8 mm and the “Interpretation of zone as per CLSI recommendations” value (E. coli B-123; Table 5, ESBL inhibitor 0 mcg) was “(R)”. For the same compound, the “Interpretation of zone as per CLSI recommendations” value (E. coli B-123; [8]) was “(S)”, the “Zone of Inhibition” value (E. coli B-123; with Tazobactam 10 mcg) was 20 mm and the “Zone of Inhibition” value (E. coli S-112; [7]) was 17 mm. The “Interpretation of zone as per CLSI recommendations” value (E. coli S-112; Table 5, ESBL inhibitor 0 mcg) was “(I)”, the “Interpretation of zone as per CLSI recommendations” value (E. coli S-112; [8]) was “(S)” and the “Zone of Inhibition” value (E. coli S-112; with Tazobactam 10 mcg) was 20.5 mm. For the same compound, the “Zone of Inhibition” value (E. coli M-138; [7]) was “Nil”, the “Interpretation of zone as per CLSI recommendations” value (E. coli M-138; Table 5, ESBL inhibitor 0 mcg) was “(R)” and the “Interpretation of zone as per CLSI recommendations” value (E. coli M-138; [8]) was “(S)”. For the same compound, the “Zone of Inhibition” value (E. coli M-138; with Tazobactam 10 mcg) was 23 mm, the “Zone of Inhibition” value (E. coli M50 [2]; [7]) was 7.5 mm and the “Interpretation of zone as per CLSI recommendations” value (E. coli M50 [2]; Table 5, ESBL inhibitor 0 mcg) was “(R)”. The “Interpretation of zone as per CLSI recommendations” value (E. coli M50 [2]; [8]) was “(S)”, the “Zone of Inhibition” value (E. coli M50 [2]; with Tazobactam 10 mcg) was 24 mm and the “Zone of Inhibition” value (E. coli 7MP [3]; [7]) was 16 mm. The “Interpretation of zone as per CLSI recommendations” value (E. coli 7MP [3]; Table 5, ESBL inhibitor 0 mcg) was “(I)”, the “Interpretation of zone as per CLSI recommendations” value (E. coli 7MP [3]; [8]) was “(S)” and the “Zone of Inhibition” value (E. coli 7MP [3]; with Tazobactam 10 mcg) was 20.5 mm. It also gave an MIC (E. coli B-89 [4]; with Tazobactam 8 mcg) of 2 µg/mL, an MIC (E. coli B-89 [4]; Escherichia coli, B89, 20 h, Tazobactam 0 mcg (antibiotic alone), read-out: MIC) of over 64 µg/mL and an Activity (MIC, method of Example 1), Table 7 (E. coli B123; antibiotic alone) of over 64 µg/mL. It also gave an Activity (MIC, method of Example 1), Table 7 (E. coli B123; with Clavulanic acid 4 mcg) of 8 µg/mL, an Activity (MIC, method of Example 1), Table 7 (E. coli B123; with Clavulanic acid 8 mcg) of 8 µg/mL and an Activity (MIC, method of Example 1), Table 7 (E. coli B123; with Sulbactam 4 mcg) of 8 µg/mL. For the same compound, the Activity (MIC, method of Example 1), Table 7 (E. coli B123; with Sulbactam 8 mcg) was 16 µg/mL, the Activity (MIC, method of Example 1), Table 7 (E. coli B123; with Tazobactam 4 mcg) was 4 µg/mL and the Activity (MIC, method of Example 1), Table 7 (E. coli B123; with Tazobactam, (4 mcg)) was 2 µg/mL. It also gave an MIC (E. coli B123; Tazobactam 0 mcg (antibiotic alone)) of over 64 µg/mL, an MIC (E. coli B123; with Tazobactam 4 mcg) of 4 µg/mL and an MIC (E. coli B123; with Tazobactam 8 mcg) of 2 µg/mL. For the same compound, the Activity (MIC, method of Example 1), Table 7 (E. cloacae M-20; antibiotic alone) was over 64 µg/mL, the Activity (MIC, method of Example 1), Table 7 (E. cloacae M-20; with Clavulanic acid 4 mcg) was 16 µg/mL and the Activity (MIC, method of Example 1), Table 7 (E. cloacae M-20; with Clavulanic acid 8 mcg) was 8 µg/mL. It also gave an Activity (MIC, method of Example 1), Table 7 (E. cloacae M-20; with Sulbactam 4 mcg) of 32 µg/mL, an Activity (MIC, method of Example 1), Table 7 (E. cloacae M-20; with Sulbactam 8 mcg) of 16 µg/mL and an Activity (MIC, method of Example 1), Table 7 (E. cloacae M-20; with Tazobactam 4 mcg) of 4 µg/mL. For the same compound, the MIC (E. cloacae M-20; with Tazobactam 8 mcg) was 4 µg/mL, the Activity (MIC, method of Example 1), Table 7 (E. cloacae M-20; with Tazobactam, (4 mcg)) was 4 µg/mL and the MIC (E. cloacae M-20; Enterobacter cloacae, M20, 20 h, Tazobactam 0 mcg (antibiotic alone), read-out: MIC) was over 64 µg/mL. It also gave an MIC (K. pneumoniae M150; K. pneumoniae M150, with Tazobactam 4 mcg) of 4 µg/mL, an MIC (K. pneumoniae M150; K. pneumoniae M150, with Tazobactam 8 mcg) of 4 µg/mL and an MIC (K. pneumoniae M150; Klebsiella pneumoniae, M150, K. pneumoniae M150, Tazobactam 0 mcg (antibiotic alone), read-out: MIC) of over 64 µg/mL. For the same compound, the MIC (K. pneumoniae M150; Klebsiella pneumoniae, M150, K. pneumoniae M150, with Tazobactam 4 mcg, read-out: MIC) was 4 µg/mL, the MIC (K. pneumoniae M150; Klebsiella pneumoniae, M150, K. pneumoniae M150, with Tazobactam 8 mcg, read-out: MIC) was 4 µg/mL and the MIC (E. coli M50 [5]; Escherichia coli, 20 h, Tazobactam 0 mcg (antibiotic alone), read-out: MIC) was over 64 µg/mL. It also gave an MIC (E. coli M50 [5]; with Tazobactam 4 mcg) of 2 µg/mL, an MIC (E. coli M50 [5]; with Tazobactam 8 mcg) of 2 µg/mL and an Activity (MIC, method of Example 1), Table 7 (E. coli 7MP [6]; antibiotic alone) of over 64 µg/mL. The Activity (MIC, method of Example 1), Table 7 (E. coli 7MP [6]; with Clavulanic acid 4 mcg) was 16 µg/mL, the Activity (MIC, method of Example 1), Table 7 (E. coli 7MP [6]; with Clavulanic acid 8 mcg) was 8 µg/mL and the Activity (MIC, method of Example 1), Table 7 (E. coli 7MP [6]; with Sulbactam 4 mcg) was 16 µg/mL. The Activity (MIC, method of Example 1), Table 7 (E. coli 7MP [6]; with Sulbactam 8 mcg) was 16 µg/mL, the Activity (MIC, method of Example 1), Table 7 (E. coli 7MP [6]; with Tazobactam 4 mcg) was 8 µg/mL and the MIC (E. coli 7MP [6]; with Tazobactam 4 mcg) was 8 µg/mL. The MIC (E. coli 7MP [6]; with Tazobactam 8 mcg) was 4 µg/mL, the Activity (MIC, method of Example 1), Table 7 (E. coli 7MP [6]; with Tazobactam, (4 mcg)) was 4 µg/mL and the MIC (E. coli 7MP [6]; Escherichia coli, 7MP, 20 h, Tazobactam 0 mcg (antibiotic alone), read-out: MIC) was over 64 µg/mL.
